{"source": "patent US6090825A", "about": "“Oxazole derivatives as antagonists of alpha 1C andrenergic receptors” (Glaxo Wellcome Inc., priority 1994, dated 2000)", "key": {"urethral pressure": {"tested_on": "urethral pressure", "assay": "Canine urethral-prostate pressure: inhibition of hypogastric nerve stimulation response in anesthetized dog", "format": "in vivo, male mongrel dogs", "description": "(§1) A. CANINE URETHRAL-PROSTATE PRESSURE\n(§2) To evaluate the ability of compounds to affect urethral-prostate pressure (contractility) while assessing their cardiovascular effects simultaneously.\nUsing hypogastric nerve stimulation (NS) and the .varies.-1 agonist phenylephrine (or other receptor agonists, as appropriate) the responses of urethral pressures and systemic blood pressure are recorded. The tests compounds are then given in a log dose infusion. The inhibition of the NS response within the prostate as well as the systemic phenylephrine response on blood pressure is measured to assess the uro-selectivity of the compound in the anesthetized dog. […]\n(§3) 4. Rectal temperature is monitored and maintained at 37-39° C. with a heating pad. […]\n3. […] The effects of either nerve stimulation (NS) or IV phenylephrine can be evaluated.\n(§4) 1. After a control period of at least 30 minutes and establishment of stable baselines of urethral and blood pressure are observed, the control responses to NS or phenylephrine bolus are recorded.\n2. A hypogastric nerve stimulation of 16 Hertz, 10 Volts, 10 msec pulse width and 10 sec train duration are given and changes in urethral pressures are recorded.\n3. At a time point 5 minutes post NS a phenylephrine bolus (10 μg/kg) is given into the cephalic vein and changes in blood pressure are recorded. […]"}, "diastolic blood pressure": {"tested_on": "diastolic blood pressure", "assay": "Canine model: inhibition of phenylephrine response on diastolic blood pressure in anesthetized dog", "format": "in vivo, male mongrel dogs", "settings": "Canis lupus familiaris, iv, dose (salt) producing 50% inhibition of agonist (phenylephrine) response on diastolic blood pressure, cumulative i.v. infusion, read-out: BP ED50", "description": "as §1, §2\nUsing hypogastric nerve stimulation (NS) and the .varies.-1 agonist phenylephrine (or other receptor agonists, as appropriate) the responses of urethral pressures and systemic blood pressure are recorded. The tests compounds are then given in a log dose infusion. The inhibition of the NS response within the prostate as well as the systemic phenylephrine response on blood pressure is measured to assess the uro-selectivity of the compound in the anesthetized dog.\nInteresting compounds are those that express uro-selectivity with a ratio of >100 for the urethral pressure vs diastolic blood pressure comparisons (BP.US). […]\nas §3, §4\n3. At a time point 5 minutes post NS a phenylephrine bolus (10 μg/kg) is given into the cephalic vein and changes in blood pressure are recorded. At least two NS and phenylephrine injections are performed and evaluated for their consistency, the second consistent stimulation is picked for the baseline value response. […]"}, "male Wistar rats": {"tested_on": "male Wistar rats", "assay": "Behavioural and autonomic observation after oral dosing in rats", "format": "in vivo", "settings": "10 mg/kg po", "description": "The compound of Example 13 was administered at 10 mg/kg (po) to male Wistar rats."}, "[1]": {"assay": "Crystal form stability and hygroscopicity", "format": "physicochemical", "description": "Compounds of the present invention can exist in more than one crystalline form. For example, crystalline forms may vary from solvate to solvate. Compounds of the present invention encompass all possible crystalline forms. In particular, for example, 5-(2-{4-[5-(4-fluorophenyl)-4-(2,2,2-trifluoroethoxymethyl)-oxazol-2-yl}-ethyl)-2-methoxybenzenesulfonamide hydrochloride exists in four known crystal forms. Form I melts around 145° C. and converts to Form III which has a melting point around 200° C."}}, "note": "Structures can show the parent of a compound that is named as a salt.", "data": [{"smiles": "COc1ccc(CCN2CCC(c3nc(COCC(F)(F)F)c(-c4ccc(F)cc4)o3)CC2)cc1S(N)(=O)=O", "note": "[Example 12, 2-Methoxy-5-(2-{4-[5-(4-fluoro-phenyl)-4-(2,2,2-trifluoro-ethoxymethyl)-oxazol-2-yl]-piperidin-1-yl}-ethyl)-benzenesulfonamide]", "values": [{"measurement": "ED50", "setting": "urethral pressure; Canis lupus familiaris, iv, dose (salt) producing 50% inhibition of nerve stimulation response on urethral pressure, cumulative i.v. infusion, anesthetized dog, read-out: UP ED50", "value": 0.013, "unit": "mg/kg"}, {"measurement": "BP/UP", "setting": "urethral pressure; ratio of the BP ED50 to the UP ED50, uro-selectivity", "value": 550}, {"measurement": "ED50", "setting": "diastolic blood pressure", "value": 7.15, "unit": "mg/kg"}]}, {"smiles": "COc1ccc(CCN2CCC(c3nc(COCC(F)(F)F)c(-c4ccc(F)cc4)o3)CC2)cc1S(N)(=O)=O", "note": "[Example 13, 5-(2-{4-[5-(4-fluorophenyl)-4-(2,2,2-trifluoroethoxymethyl)-oxazol-2-yl}-ethyl)-2-methoxybenzenesulfonamide hydrochloride]", "values": [{"measurement": "animals' appearance by 24 hours after dosing", "setting": "male Wistar rats; 24 hours", "value": "all animals appeared normal by 24 hours after dosing"}, {"measurement": "ptosis", "setting": "male Wistar rats; between 1 and 4 hours after dosing", "value": "Slight to moderate ptosis was observed"}, {"measurement": "hygroscopicity", "setting": "[1]; below 70% relative humidity", "value": "non-hydgroscopic"}, {"measurement": "solid state and chemical stability", "setting": "[1]; below 70% relative humidity", "value": "good solid state and chemical stability"}, {"measurement": "conversion of crystal form", "setting": "[1]; greater than 70% relative humidity", "value": "converts to form IV"}]}, {"smiles": "COc1ccc(CCN2CCC(c3nc(COCC(F)(F)F)c(-c4ccc(F)cc4)o3)CC2)cc1S(N)(=O)=O", "note": "[Form I, 5-(2-{4-[5-(4-fluorophenyl)-4-(2,2,2-trifluoroethoxymethyl)-oxazol-2-yl}-ethyl)-2-methoxybenzenesulfonamide hydrochloride]", "values": [{"measurement": "conversion of crystal form", "setting": "[1]; room temperature, aqueous media", "value": "convert to a hydrated form (Form IV)"}]}, {"smiles": "COc1ccc(CCN2CCC(c3nc(COCC(F)(F)F)c(-c4ccc(F)cc4)o3)CC2)cc1S(N)(=O)=O", "note": "[Form IV, 5-(2-{4-[5-(4-fluorophenyl)-4-(2,2,2-trifluoroethoxymethyl)-oxazol-2-yl}-ethyl)-2-methoxybenzenesulfonamide hydrochloride]", "values": [{"measurement": "conversion of crystal form", "setting": "[1]; upon separation from the aqueous media", "value": "readily converts to an anhydrous form (Form II)"}]}]}
